We go through seven molecules from patent publication US20090203739A1, “Anti-Inflammatory Agents” (priority 2005, published 2009).

The test system of series [1] is MCP-1 induced leukocyte migration (THP-1 cells). Description: Inhibition of MCP-1 induced leukocyte migration (96-well transwell assay, THP-1 cells). The series is classed as cell-based. The conditions noted are these: Homo sapiens, MCP-1 25 ng/ml, 2 hours at 37° C., read-out: ED50 (concentration of compound required to reduce the MCP-1-induced migration by 50%). The protocol:
In principle, this assay consists of two chambers separated by a porous membrane. The chemoattractant is placed in the lower compartment and the cells are placed in the upper compartment. After incubation for a period at 37° C. the cells move towards the chemoattractant, and the number of cells in the lower compartment is proportional to the chemoattractant activity (relative to a series of controls).
The THP-1 cell line (European Cell culture Collection) were used as the leukocyte cell population.
The following procedure is used for testing the invention compounds for MCP-1 induced leukocyte migration:
First, the cell suspension to be placed in the upper compartment is prepared. The THP-1 cells are pelleted by centrifugation (770×g; 4 mins) and washed with Geys Balanced Salt Solution with 1 mg/ml BSA (GBSS+BSA). This wash is then repeated, and the cells repelleted before being resuspended in a small volume of GBSS+BSA for counting, for example using a standard haemocytometer.
The volume of GBSS+BSA is then adjusted depending on the number of cells present so that the cells are at final density of 4.45×10^6 cells per ml of GBSS+BSA. This ensures that there are […] THP-1 cells in each 25 μl of the solution that will be placed in the upper chamber of the plate.
To test a single compound for its ability to inhibit MCP-1 induced migration, it is necessary to prepare two lots of cells. The suspension of THP-1 cells at 4.45×10^6 cells/ml is divided into two pots. To one pot the inhibitor under test is added at an appropriate final concentration, in an appropriate vehicle (for example at 1 μM in not more than 1% DMSO). To the second pot an equal volume of GBSS+BSA plus vehicle as appropriate (e.g. not more than 1% DMSO) is added to act as a control.
Next, the chemoattractant solution to be placed in the lower compartment is prepared. MCP-1 is diluted in GBSS+BSA to give a final concentration of 25 ng/ml. This is divided into two pots, as for the cell suspension. To one pot, the test compound is added to the same final concentration as was added to the cell suspension, while to the other pot an equal volume of GBSS+BSA plus vehicle as appropriate (e.g. not more than 1% DMSO) is added.
Note that the volume of liquid that needs to be added to make the addition of the text compound needs to be taken into account, when establishing the final concentration of MCP-1 in the solution for the lower compartment and the final concentration of cells in the upper compartment.
Once the chemoattractant solutions for the lower wells and cell solutions for the upper chambers have been prepared, the migration chamber should be assembled. Place 29 μl of the appropriate chemoattractant solution into the lower well of the chamber. Assays should be performed with at least triplicate determinations of each condition. Once all the lower chambers have been filled, apply the prous membrane to the chamber in accordance with the manufacturer's instructions. Finally, apply 25 μl of the appropriate cell solution to each upper chamber. A plastic lid is placed over the entire apparatus to prevent evaporation.
The assembled chamber is incubated at 37° C., 5% CO2, for 2 hours. A suspension of cells in GBSS+BSA is also incubated under identical conditions in a tube: these cells will be used to construct a standard curve for determining the number of cells that have migrated to the lower chamber under each condition. […]

The conditions of series [2]: cited from earlier work.
Another series can be described thus: Stability in serum. The series is classed as in vitro ADME. To be noted: 37° C., completely stable. The source says:
As an approach to identifying such stable analogs, various derivatives of (S)-3-(undec-10-enoyl)-aminoglutarimide have been tested for their stability in serum.

In series [3] the test system is chemokine-induced migration. The conditions noted are these: versus (S)-3-(undec-10-enoyl)-aminoglutarimide; cited from earlier work.

Bridges are numbered along the chain shown (N, C = ends). Where no end group is shown, it is not given here. [ ]: non-standard residue; d: D form. A value given as a limit tells only on which side of the number the result lay.

Take `CC1(C(=O)N[C@H]2CCNC2=O)CCCCC1` [Example 6, (S)-3-(1′-Methylcyclohexanecarbonyl)amino-pyrrolidin-2-one]: the EC50 in series [1] was not above 100 nM.

For the molecule “c(DCys-DGln-DIle-DTrp-DLys-DGln-DLys-DPro-DAsp-DLeu-DCys)-NH2 ([dC][dQ][dI][dW][dK][dQ][dK][dP][dD][dL][dC]-NH2; disulfide 1-11 (inferred)) [NR58-3.14.3]”, the “half-life period of clearance from blood plasma” value in series [2] (after intravenous injection) is “less than 30 minutes”. Further, the oral bioavailability entry in series [2] (in vivo, po) is “not orally bioavailable”.

Take `O=C1NCCC[C@@H]1NC(=O)C1(c2ccccc2)CCCCC1` [Example 7, (S)-3-(1′-Phenylcyclohexanecarbonyl)amino-tetrahydropyridin-2-one]: the EC50 in series [1] is not above 100 nM.

For the molecule `CC1(C(=O)N[C@H]2CCCNC2=O)CCCCC1` [Example 5, (S)-3-(1′-Methylcyclohexanecarbonyl)amino-tetrahydropyridin-2-one], the EC50 in series [1] was not above 100 nM.

In the case of `CCCCCCCCCCC(C)(C)C(=O)N[C@H]1CCNC1=O` [Example 4, (S)-3-(2′,2′-Dimethyldodecanoylamino)-pyrrolidin-2-one], the EC50 in series [1] was not above 100 nM.

As for `CCCCCCCCCCC(C)(C)C(=O)N[C@H]1CCCNC1=O` [Example 3, (S)-3-(2′,2′-Dimethyldodecanoylamino)-tetrahydropyridin-2-one], in series [1], the EC50 was not above 100 nM.

As for `C=CCCCCCCCCC(=O)[C@@H]1CCCNC1=O` [(S)-3-(undec-10-enoyl)-tetrahydropyridin-2-one], the “stability in human serum” value in “Stability in serum” is reported as “at least 7 days”. Further, the “potency compared with the parental molecule” value in series [3] is on record as “considerably reduced potency”.
